Molecules are shown by their SMILES.

A word on the melting point: it is the temperature of the solid-liquid transition. `O=c1[nH]c2ccc(CCCN3CCC(Cc4ccc(F)cc4)CC3)cc2o1` [Example 1, 6-{3-[4-(4-fluorobenzyl)piperid-1-yl]propyl}-3H-benzoxazol-2-one]: the melting point lay in the range of 105 to 107 °C.

`O=c1[nH]c2ccc(C=CCN3CCC(Cc4ccc(F)cc4)CC3)cc2o1` [Example 2, 6-{3-[4-(4-fluorobenzyl)piperid-1-yl]propenyl}-3H-benzoxazol-2-one] came in with a melting point of 202 to 203.5 °C.
